Reference: PubChem BioAssay AID2060350 (Molecular Pharmacology Branch, DTP, NCI, 2025)
pIC50: −log10 of the molar value.

System: PDC 521955-158-R6-J3 spheroids, viability
Experiment: Anticancer human tumor 521955-158-R6-J3-PDC patient-derived pancreatic carcinoma cell line growth inhibition [TAK]
Details: spheroids with HUVEC and MSC; for pIC50: curve of first compound; for viability, T/C: stronger effect = lower value; active means viability on the fitted dose curve at most 10% of control; inactive means the rest
Procedure, shortened: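 Tumor cells were grown as spheroids with HUVEC and hMSC (60:25:15) and treated with targeted agents combined with TAK-243 or ipatasertib. Drugs were tested in half-log steps down from near the clinical Cmax, or from 10 microM where Cmax was unknown.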

[1] = second compound 0.3 µM, first compound 0.0316 µM
[2] = second compound 0.3 µM, first compound 0.1 µM
[3] = second compound 0.3 µM, first compound 0.316 µM
[4] = second compound 0.3 µM, first compound 1 µM
[5] = second compound 0.3 µM, first compound 3.16 µM
[6] = second compound 0.3 µM, first compound 10 µM
[7] = second compound 0.949 µM, first compound 0.0316 µM
[8] = second compound 0.949 µM, first compound 0.1 µM
[9] = second compound 0.949 µM, first compound 0.316 µM
[10] = second compound 0.949 µM, first compound 1 µM
[11] = second compound 0.949 µM, first compound 3.16 µM
[12] = second compound 0.949 µM, first compound 10 µM
[13] = second compound 3 µM, first compound 0.0316 µM
[14] = second compound 3 µM, first compound 0.1 µM
[15] = second compound 3 µM, first compound 0.316 µM
[16] = second compound 3 µM, first compound 1 µM
[17] = second compound 3 µM, first compound 3.16 µM
[18] = second compound 3 µM, first compound 10 µM
[19] = second compound 9.49 µM, first compound 0.0316 µM
[20] = second compound 9.49 µM, first compound 0.1 µM
[21] = second compound 9.49 µM, first compound 0.316 µM
[22] = second compound 9.49 µM, first compound 1 µM
[23] = second compound 9.49 µM, first compound 3.16 µM
[24] = second compound 9.49 µM, first compound 10 µM
[25] = second compound 30 µM, first compound 0.0316 µM
[26] = second compound 30 µM, first compound 0.1 µM
[27] = second compound 30 µM, first compound 0.316 µM
[28] = second compound 30 µM, first compound 1 µM
[29] = second compound 30 µM, first compound 3.16 µM
[30] = second compound 30 µM, first compound 10 µM
[31] = second compound 0.3 µM, first compound 0.000316 µM
[32] = second compound 0.3 µM, first compound 0.001 µM
[33] = second compound 0.3 µM, first compound 0.00316 µM
[34] = second compound 0.3 µM, first compound 0.01 µM
[35] = second compound 0.949 µM, first compound 0.000316 µM
[36] = second compound 0.949 µM, first compound 0.001 µM
[37] = second compound 0.949 µM, first compound 0.00316 µM
[38] = second compound 0.949 µM, first compound 0.01 µM
[39] = second compound 3 µM, first compound 0.000316 µM
[40] = second compound 3 µM, first compound 0.001 µM
[41] = second compound 3 µM, first compound 0.00316 µM
[42] = second compound 3 µM, first compound 0.01 µM
[43] = second compound 9.49 µM, first compound 0.000316 µM
[44] = second compound 9.49 µM, first compound 0.001 µM
[45] = second compound 9.49 µM, first compound 0.00316 µM
[46] = second compound 9.49 µM, first compound 0.01 µM
[47] = second compound 30 µM, first compound 0.000316 µM
[48] = second compound 30 µM, first compound 0.001 µM
[49] = second compound 30 µM, first compound 0.00316 µM
[50] = second compound 30 µM, first compound 0.01 µM
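Further: spheroids exposed to drugs for 7 days before readout.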
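Wherever viability, T/C is given: 100% = DMSO vehicle control viability.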

CC(C)(C)c1nc(-c2cccc(NS(=O)(=O)c3c(F)cccc3F)c2F)c(-c2ccnc(N)n2)s1 + CC(C)NCC(C(=O)N1CCN(c2ncnc3c2C(C)CC3O)CC1)c1ccc(Cl)cc1
inactive: viability, T/C [1] 104% | viability, T/C [2] 128% | viability, T/C [3] 136% | viability, T/C [4] 129% | viability, T/C [5] 107% | viability, T/C [6] 107% | viability, T/C [7] 98.7% | viability, T/C [8] 123% | viability, T/C [9] 136% | viability, T/C [10] 129% | viability, T/C [11] 105% | viability, T/C [12] 85.8% | viability, T/C [13] 91.9% | viability, T/C [14] 110% | viability, T/C [15] 117% | viability, T/C [16] 119% | viability, T/C [17] 100% | viability, T/C [18] 73.8% | viability, T/C [19] 84.2% | viability, T/C [20] 97.4% | viability, T/C [21] 118% | viability, T/C [22] 119% | viability, T/C [23] 94.8% | viability, T/C [24] 65% | viability, T/C [25] 87.9% | viability, T/C [26] 83.5% | viability, T/C [27] 95.5% | viability, T/C [28] 83.8% | viability, T/C [29] 73.2% | viability, T/C [30] 68.6%
< 5.00: pIC50 (second compound 0.3 µM) | pIC50 (second compound 0.949 µM) | pIC50 (second compound 3 µM) | pIC50 (second compound 9.49 µM) | pIC50 (second compound 30 µM)

CC(C)CC(NC(=O)CNC(=O)c1cc(Cl)ccc1Cl)B1OC(=O)CC(CC(=O)O)(C(=O)O)O1 (stereo not given) + CC(C)NCC(C(=O)N1CCN(c2ncnc3c2C(C)CC3O)CC1)c1ccc(Cl)cc1
7.27: pIC50 (second compound 0.949 µM)
7.47: pIC50 (second compound 30 µM)
7.25: pIC50 (second compound 0.3 µM)
7.31: pIC50 (second compound 3 µM)
7.38: pIC50 (second compound 9.49 µM)
active: viability, T/C [2] 6.28% | viability, T/C [8] 5.88% | viability, T/C [14] 3.93% | viability, T/C [20] 3.75% | viability, T/C [26] 2.76%
inactive: viability, T/C [31] 86.8% | viability, T/C [32] 92.5% | viability, T/C [33] 106% | viability, T/C [34] 97.8% | viability, T/C [1] 92.9% | viability, T/C [35] 84.3% | viability, T/C [36] 93.8% | viability, T/C [37] 97.9% | viability, T/C [38] 100% | viability, T/C [7] 89.1% | viability, T/C [39] 86.3% | viability, T/C [40] 90.7% | viability, T/C [41] 92.6% | viability, T/C [42] 104% | viability, T/C [13] 78.7% | viability, T/C [43] 92.7% | viability, T/C [44] 92.5% | viability, T/C [45] 96.9% | viability, T/C [46] 98% | viability, T/C [19] 65% | viability, T/C [47] 82.3% | viability, T/C [48] 85.2% | viability, T/C [49] 85% | viability, T/C [50] 99.5% | viability, T/C [25] 52.7%

CC(C)n1nc(-c2ccc3oc(N)nc3c2)c2c(N)ncnc21 + CC(C)NCC(C(=O)N1CCN(c2ncnc3c2C(C)CC3O)CC1)c1ccc(Cl)cc1
inactive: viability, T/C [31] 83.2% | viability, T/C [32] 85% | viability, T/C [33] 87.1% | viability, T/C [34] 80.5% | viability, T/C [1] 70.3% | viability, T/C [2] 54.1% | viability, T/C [35] 70.3% | viability, T/C [36] 74.7% | viability, T/C [37] 71.9% | viability, T/C [38] 77% | viability, T/C [7] 56.3% | viability, T/C [8] 40.2% | viability, T/C [39] 75.6% | viability, T/C [40] 76.8% | viability, T/C [41] 70% | viability, T/C [42] 66.8% | viability, T/C [13] 44.6% | viability, T/C [14] 29.8% | viability, T/C [43] 64% | viability, T/C [44] 67.3% | viability, T/C [45] 73.9% | viability, T/C [46] 55% | viability, T/C [19] 40.3% | viability, T/C [20] 26.4% | viability, T/C [47] 63.2% | viability, T/C [48] 62.5% | viability, T/C [49] 54.5% | viability, T/C [50] 47.4% | viability, T/C [25] 33.4% | viability, T/C [26] 23.9%
7.31: pIC50 (second compound 0.949 µM)
7.62: pIC50 (second compound 3 µM)
7.79: pIC50 (second compound 9.49 µM)
8.19: pIC50 (second compound 30 µM)
< 7.00: pIC50 (second compound 0.3 µM)

CCCS(=O)(=O)Nc1ccc(F)c(C(=O)c2c[nH]c3ncc(-c4ccc(Cl)cc4)cc23)c1F + CC(C)NCC(C(=O)N1CCN(c2ncnc3c2C(C)CC3O)CC1)c1ccc(Cl)cc1
4.66: pIC50 (second compound 30 µM)
active: viability, T/C (second compound 30 µM, first compound 100 µM) 7.85%
inactive: viability, T/C [3] 143% | viability, T/C [4] 89.8% | viability, T/C [5] 96.1% | viability, T/C [6] 92.2% | viability, T/C (second compound 0.3 µM, first compound 31.6 µM) 79.8% | viability, T/C (second compound 0.3 µM, first compound 100 µM) 176% | viability, T/C [9] 98.1% | viability, T/C [10] 108% | viability, T/C [11] 80.6% | viability, T/C [12] 128% | viability, T/C (second compound 0.949 µM, first compound 31.6 µM) 79.5% | viability, T/C (second compound 0.949 µM, first compound 100 µM) 159% | viability, T/C [15] 93.3% | viability, T/C [16] 97.5% | viability, T/C [17] 81% | viability, T/C [18] 97.4% | viability, T/C (second compound 3 µM, first compound 31.6 µM) 66.6% | viability, T/C (second compound 3 µM, first compound 100 µM) 39.5% | viability, T/C [21] 94.8% | viability, T/C [22] 98.5% | viability, T/C [23] 78.5% | viability, T/C [24] 88.9% | viability, T/C (second compound 9.49 µM, first compound 31.6 µM) 87.4% | viability, T/C (second compound 9.49 µM, first compound 100 µM) 20.4% | viability, T/C [27] 106% | viability, T/C [28] 108% | viability, T/C [29] 132% | viability, T/C [30] 99.8% | viability, T/C (second compound 30 µM, first compound 31.6 µM) 20.2%
4.19: pIC50 (second compound 3 µM)
4.22: pIC50 (second compound 9.49 µM)
< 4.00: pIC50 (second compound 0.3 µM) | pIC50 (second compound 0.949 µM)
